Results as given in the NIST ThermoML archive (doi:10.1016/j.jct.2012.11.004).

Assay: mn = molality of the nth substance listed, in mol/kg
Conditions: 101 kPa, Liquid; for mass density: Vibrating tube method; for speed of sound: Pulse-echo method

O=S(=O)([O-])C(F)(F)F.[Na+] [sodium trifluoromethanesulfonate] + CN(C)C=O
Conditions	mass density, 283.15 K [kg/m3]	mass density, 293.15 K [kg/m3]	mass density, 298.15 K [kg/m3]	mass density, 303.15 K [kg/m3]	mass density, 313.15 K [kg/m3]	mass density, 323.15 K [kg/m3]	mass density, 333.15 K [kg/m3]	speed of sound, 298.15 K [m/s]
m1 = 0.03242	961.31	951.8	947.04	942.26	932.69	923.07	913.39	–
m1 = 0.04301	962.37	952.86	948.1	943.33	933.75	924.13	914.46	–
m1 = 0.05649	963.72	954.21	949.44	944.67	935.1	925.48	915.81	–
m1 = 0.07002	965.07	955.56	950.8	946.03	936.46	926.83	917.16	1456.8
m1 = 0.08981	967.04	957.54	952.77	948	938.43	928.81	919.14	1456.7
m1 = 0.1114	969.21	959.69	954.93	950.16	940.6	930.98	921.31	1456.6
m1 = 0.1445	972.54	963.02	958.25	953.48	943.91	934.29	924.63	1456.4
m1 = 0.1748	975.61	966.08	961.32	956.54	946.97	937.35	927.69	1456.2
m1 = 0.2026	978.41	968.91	964.12	959.34	949.76	940.13	930.5	1456.1
m1 = 0.239	982.12	972.58	967.82	963.03	953.44	943.82	934.15	1455.9
m1 = 0.2681	985.09	975.55	970.79	966.01	956.41	946.79	937.1	1455.7

O=S(=O)([O-])C(F)(F)F.O=S(=O)([O-])C(F)(F)F.O=S(=O)([O-])C(F)(F)F.[Gd+3] [gadolinium (III) trifluoromethanesulfonate] + CC(=O)N(C)C
Conditions	mass density, 283.15 K [kg/m3]	mass density, 293.15 K [kg/m3]	mass density, 298.15 K [kg/m3]	mass density, 303.15 K [kg/m3]	mass density, 313.15 K [kg/m3]	mass density, 323.15 K [kg/m3]	mass density, 333.15 K [kg/m3]	speed of sound, 298.15 K [m/s]
m1 = 0.02128	959.25	950.04	945.43	940.82	931.58	922.32	913.01	1456.1
m1 = 0.02915	962.65	953.45	948.84	944.24	935	925.73	916.44	1455.9
m1 = 0.03784	966.42	957.21	952.61	948.01	938.78	929.52	920.23	1455.7
m1 = 0.04864	971.16	961.95	957.35	952.76	943.52	934.27	924.97	1455.4
m1 = 0.05951	975.96	966.76	962.16	957.57	948.33	939.08	929.78	1455
m1 = 0.07557	983.07	973.86	969.27	964.67	955.44	946.19	936.89	1454.7
m1 = 0.0965	992.52	983.33	978.73	974.12	964.89	955.64	946.35	1454
m1 = 0.1165	1001.67	992.48	987.87	983.27	974.05	964.79	955.49	1453.6
m1 = 0.1341	1009.86	1000.66	996.06	991.46	982.24	972.98	963.68	1452.9
m1 = 0.1567	1020.47	1011.27	1006.67	1002.09	992.85	983.6	974.31	1452.5
m1 = 0.1757	1029.6	1020.41	1015.81	1011.21	1001.99	992.73	983.44	1451.8

O=S(=O)([O-])C(F)(F)F.O=S(=O)([O-])C(F)(F)F.O=S(=O)([O-])C(F)(F)F.[La+3] [lanthanum(III) trifluoromethanesulfonate] + CC(=O)N(C)C
Conditions	mass density, 283.15 K [kg/m3]	mass density, 293.15 K [kg/m3]	mass density, 298.15 K [kg/m3]	mass density, 303.15 K [kg/m3]	mass density, 313.15 K [kg/m3]	mass density, 323.15 K [kg/m3]	mass density, 333.15 K [kg/m3]	speed of sound, 298.15 K [m/s]
m1 = 0.02085	958.67	949.47	944.86	940.26	931.01	921.74	912.42	–
m1 = 0.02801	961.64	952.45	947.84	943.23	933.99	924.71	915.39	–
m1 = 0.03761	965.63	956.43	951.81	947.21	937.97	928.7	919.38	–
m1 = 0.04797	969.94	960.74	956.14	951.53	942.29	933.02	923.71	–
m1 = 0.05797	974.13	964.94	960.34	955.73	946.49	937.22	927.91	–
m1 = 0.07244	980.27	971.08	966.48	961.88	952.67	943.36	934	1455.9
m1 = 0.09378	989.43	980.24	975.64	971.03	961.79	952.5	943.16	–
m1 = 0.1127	997.64	988.45	983.85	979.24	969.99	960.7	951.36	–
m1 = 0.1302	1005.34	996.15	991.55	986.95	977.69	968.39	959.05	–
m1 = 0.1523	1015.25	1006.06	1001.46	996.85	987.59	978.29	968.93	–
m1 = 0.1712	1023.81	1014.62	1010.03	1005.42	996.16	986.84	977.5	–
